Legend:
Format in all cases: in vivo
Diabrotica balteata = experiment: Activity against Diabrotica balteata (sprayed maize seedlings); conditions: 144 h, 400 ppm spray on maize seedlings, 2nd instar larvae, 6 days, read-out: percentage reduction in the population (% activity)
Experimental: Maize seedlings are sprayed with an aqueous emulsion spray mixture comprising 400 ppm of active ingredient and, after the spray coating has dried on, populated with 10 larvae (2nd instar) of Diabrotica balteata and introduced into a plastic container. 6 days later, the percentage reduction in the population (% activity) is determined by comparing the number of dead larvae between the treated and untreated plants.

Heliothis virescens = experiment: Activity against Heliothis virescens (foliar application); conditions: 144 h, 400 ppm spray on young soya plants, 1st instar, 6 days, read-out: percentage reduction in the population and in the feeding damage (% activity)
Experimental: (§1) Young soya plants are sprayed with an aqueous emulsion spray mixture comprising 400 ppm of active ingredient and, after the spray coating has dried on, populated with 10 caterpillars (1st instar) of Heliothis virescens and introduced into a plastic container. 6 days later, the percentage reduction in the population and in the feeding damage (% activity) are determined by comparing the number of dead caterpillars and the feeding damage between the treated and untreated plants.

Plutella xylostella = experiment: Activity against Plutella xylostella; conditions: 72 h, 400 ppm spray on young cabbage plants, 3rd instar, 3 days, read-out: percentage reduction in the population and in the feeding damage (% activity)
Experimental: as §1, with “cabbage” for “soya”, “(3rd” for “(1st”, “Plutella xylostella” for “Heliothis virescens”, “3” for “6”

Spodoptera littoralis = experiment: Activity against Spodoptera littoralis (sprayed soya plants); conditions: 72 h, 400 ppm spray on young soya plants, 1st instar, 3 days, read-out: percentage reduction in the population and in the feeding damage (% activity)
Experimental: as §1, with “Spodoptera littoralis” for “Heliothis virescens”, “3” for “6”

Measured: inhibition at 400 ppm

Cc1cc(C#N)cc(C(=O)NC2(C3CC3)CC2)c1NC(=O)c1cc(C(F)(F)F)nn1-c1ncccc1Cl [A.1.1, 2-(3-Chloro-pyridin-2-yl)-5-trifluoromethyl-2H-pyrazole-3-carboxylic acid [2-(bicyclopropyl-1-ylcarbamoyl)-4-cyano-6-methyl-phenyl]-amide]
> 80%: all assays above
